Data published in patent publication US20150113683A1, “METHODS FOR PLANT TRANSFORMATION USING SPECTINOMYCIN SELECTION” (Monsanto Technology LLC, priority 2007, published 2015).
Where “and” joins values, the source holds several entries; their conditions need not be identical. Identical values can stand only once.

Tests used:
soybean explants [1] = test: TDZ in inoculation/co-culture medium: shoots harvested and transformed rooted shoots, glyphosate selection; type: cell-based, soybean (Glycine max)
dry soybean explants = test: Transformation frequency of dry soybean explants using glyphosate or spectinomycin as selective agent; type: cell-based; conditions: Glyphosate 50 uM in regeneration medium; dry soybean explants
soybean explants [2] = test: BAP or TDZ for 4 days after co-cultivation: GFP-positive bud development, dicamba selection; type: cell-based, soybean (Glycine max); conditions: for # Explants w/ GFP+ buds / % Explants w/ GFP+ buds: 0.01 mg/L dicamba selection, 24 DAI; for effect on final transformation frequencies (TFs): addition of cytokinin with dicamba selection
soybean explants [3] = test: BAP during co-culture and post co-culture delay: rooted plants and TF, spectinomycin selection; type: cell-based, soybean (Glycine max); conditions: 150 mg/L spectinomycin selection
Method: Soybean explants were inoculated and co-cultured with Agrobacterium harboring pMON96999 (FIG. 2). The inoculation and co-culture medium were supplemented with 0, 1, 2, 3, 4 or 5 mg/L BAP. […] The explants were then transferred onto selection medium (the same as the delay medium but containing 150 mg/L spectinomycin) for shoot induction and selection. […] To determine how many explants could develop transformed shoots without BAP treatment, explant tissues were assayed for GUS activity at 42 days after inoculation. […] Most of them were axillary, and some of them were apparently chimeric. The explants treated with BAP had much less or non-elongated primary shoots, and more de novo shoots. Many of the shoots elongated on the selection medium and were harvested to induce roots on the root induction medium also containing 150 mg/L spectinomycin as in protocol “A”.

soybean explants [4] = test: TDZ during inoculation/co-cultivation: GFP-positive bud/shoot development, glyphosate selection; type: cell-based, soybean (Glycine max); conditions: for # Explants with GFP+ buds/shoots: 200 explants examined
soybean explants [5] = test: TDZ during inoculation and co-culture: development of GUS-positive buds; type: cell-based, soybean (Glycine max); conditions: for # Explants w/ GUS+ buds (13 DAI): 96 explants assayed
[6] = test system: 3 months stored dry soybean explants; test: Stored dry soybean explants, spectinomycin, pre-culture: TF; type: cell-based; conditions: nystatin 50 ppm and thiabendazole 10 ppm dissolved in DMSO added together to INO co-culture media
[7] = 1 mg/L for 4 days after co-cultivation
[8] = 2 mg/L for 4 days after co-cultivation
[9] = BAP 1 mg/L in co-culture & 4-d post co-culture delay medium
[10] = BAP 2 mg/L in co-culture & 4-d post co-culture delay medium
[11] = BAP 3 mg/L in co-culture & 4-d post co-culture delay medium
[12] = BAP 4 mg/L in co-culture & 4-d post co-culture delay medium
[13] = BAP 5 mg/L in co-culture & 4-d post co-culture delay medium
[14] = TDZ 0.5 mg/L in inoculation and co-cultivation medium
[15] = TDZ 1.0 mg/L in inoculation and co-cultivation medium
[16] = TDZ 1.5 mg/L in inoculation and co-cultivation medium
[17] = TDZ 2.0 mg/L in inoculation and co-cultivation medium
[18] = TDZ 3.0 mg/L in inoculation and co-cultivation medium
[19] = TDZ 1 mg/L for inoculation/co-culture, glyphosate selection
[20] = TDZ 2 mg/L for inoculation/co-culture, glyphosate selection
[21] = TDZ 3 mg/L for inoculation/co-culture, glyphosate selection
[22] = TDZ 0.5 mg/L for inoculation & co-culture
[23] = TDZ 1.0 mg/L for inoculation & co-culture
[24] = TDZ 2.0 mg/L for inoculation & co-culture

Compound: O=C(O)CNCP(=O)(O)O [Glyphosate, glyphosate]
- transformation frequency (soybean explants [1]; comparable experiments utilizing glyphosate as selective agent): ~2%
- % TF (dry soybean explants): 2.00%

Compound: c1ccc(CNc2ncnc3nc[nH]c23)cc1 [BAP, 6-Benzylaminopurine]
- # Explants w/ GFP+ buds (soybean explants [2]; [7]): 12
- % Explants w/ GFP+ buds (soybean explants [2]; [7]): 3.7%
- # Explants w/ GFP+ buds (soybean explants [2]; [8]): 11
- % Explants w/ GFP+ buds (soybean explants [2]; [8]): 3.3%
- effect on final transformation frequencies (TFs) (soybean explants [2]): no visible effect
- # Rooted plants (soybean explants [3]; [9]): 103
- % TF (soybean explants [3]; [9]): 26.1%
- # Rooted plants (soybean explants [3]; [10]): 94
- % TF (soybean explants [3]; [10]): 27.1%
- # Rooted plants (soybean explants [3]; [11]): 87
- % TF (soybean explants [3]; [11]): 24.9%
- # Rooted plants (soybean explants [3]; [12]): 132
- % TF (soybean explants [3]; [12]): 30.3%
- # Rooted plants (soybean explants [3]; [13]): 116
- % TF (soybean explants [3]; [13]): 26.6%

Compound: O=C(Nc1ccccc1)Nc1cnns1 [TDZ, thidiazuron]
- Frequency of explants with GFP+ buds/shoots (soybean explants [4]; [14]): 18%
- # Explants with GFP+ buds/shoots (soybean explants [4]; [14]): 36
- Frequency of explants with GFP+ buds/shoots (soybean explants [4]; [15]): 24%
- # Explants with GFP+ buds/shoots (soybean explants [4]; [15]): 48
- Frequency of explants with GFP+ buds/shoots (soybean explants [4]; [16]): 25%
- # Explants with GFP+ buds/shoots (soybean explants [4]; [16]): 50
- Frequency of explants with GFP+ buds/shoots (soybean explants [4]; [17]): 30%
- # Explants with GFP+ buds/shoots (soybean explants [4]; [17]): 60
- Frequency of explants with GFP+ buds/shoots (soybean explants [4]; [18]): 32%
- # Explants with GFP+ buds/shoots (soybean explants [4]; [18]): 64
- % Transformed rooted shoots (soybean explants [1]; TDZ 0.5 mg/L for inoculation/co-culture, glyphosate selection): 1.1% and 1.4% and 4.3%
- % Transformed rooted shoots (soybean explants [1]; [19]): 1.3% and 1.6% and 0.5% and 3.2% and 1%
- Shoots harvested, % Shooting Frequency (soybean explants [1]; [19]): 4.9% and 7% and 3.5% and 13% and 6.8%
- % Transformed rooted shoots (soybean explants [1]; [20]): 0.1% and 1.3% and 0.9% and 0.5%
- Shoots harvested, % Shooting Frequency (soybean explants [1]; [20]): 1.4% and 4.9% and 5.1% and 6.7% and 1.9%
- % Transformed rooted shoots (soybean explants [1]; [21]): 0.6% and 0.7%
- Rooted shoots, Total # (soybean explants [1]; [21]): 5 and 8
- Shoots harvested, % Shooting Frequency (soybean explants [1]; [21]): 4.7% and 1.9%
- Shoots harvested, Total # (soybean explants [1]; [21]): 40 and 20
- # Explants w/ GFP+ buds (soybean explants [2]; [7]): 71
- % Explants w/ GFP+ buds (soybean explants [2]; [7]): 18.3%
- # Explants w/ GFP+ buds (soybean explants [2]; [8]): 53
- % Explants w/ GFP+ buds (soybean explants [2]; [8]): 13.8%
- effect on final transformation frequencies (TFs) (soybean explants [2]): no visible effect
- % Explants with GUS+ buds (13 DAI) (soybean explants [5]; [22]): 18.8%
- # Explants w/ GUS+ buds (13 DAI) (soybean explants [5]; [22]): 18
- % Explants with GUS+ buds (13 DAI) (soybean explants [5]; [23]): 35.4%
- # Explants w/ GUS+ buds (13 DAI) (soybean explants [5]; [23]): 34
- % Explants with GUS+ buds (13 DAI) (soybean explants [5]; [24]): 50.0%
- # Explants w/ GUS+ buds (13 DAI) (soybean explants [5]; [24]): 48

Compound: C[C@@H]1[C@H](O)[C@@H](C)/C=C/C=C/CC/C=C/C=C/C=C/C=C/C(O[C@H]2O[C@H](C)[C@@H](O)[C@H](N)[C@@H]2O)CC2O[C@](O)(CC(O)C(O)CCC(O)CC(O)CC(O)CC(=O)O[C@H]1C)CC(O)C2C(=O)O (stereo partly shown) [nystatin]
- health of explants [6]: improved the health of explants

Compound: c1ccc2[nH]c(-c3cscn3)nc2c1 [thiabendazole]
- health of explants [6]: improved the health of explants
